Patent publication US5576290A, “Compositions and methods for the diagnosis and treatment of psychogenic erectile dysfunction” (Competitive Technologies, Inc., priority 1994, dated 1996)
Blank lines part the entries; values can stand above or below the molecule they belong to. Bridge positions count the residues as written; N and C are the ends. Square brackets hold non-standard residues; d marks the D form. Ends that are not written are not given here. Peptide text beside a SMILES is read from it. Nle = CCCC[C@H](N)C(=O)O

Legend:
[1] = system: human volunteers; experiment: Erectile response after subcutaneous injection of peptide in human volunteers; assay type: in vivo
Procedure: The peptides described herein were prepared by sterile methods to a final concentration of 10 mg of peptide per ml of physiological saline. In addition to a full dose providing 10 mg of the peptide to the individual, doses of 0.1 to 0.3 ml (providing 1 mg to 3 mg of the peptide to each individual) of this stock material were also injected into volunteers, with a dose of 0.1 to 0.2 ml being the most often used dosage.
The onset of erection occurred about 1 to 2 hours after injection. […] A dose of 3.75 mg given to volunteers produced a long lasting erection of 4 to 6 hour duration. […] In some, this discomfort was considerable. […] Accordingly, although dosages of from about 1.0 mg to about 10.0 mg show the desired activity according to the present invention, it is preferred that the lower ranges of dosage which bring about the desired erection without undesirable side effects be used. Accordingly, it is preferred that dosages of about 1.5 mg to 2.5 mg of peptide be provided when the route of administration is subcutaneous or intramuscular. With other routes of administration, this range may require adjustment, however, it is still preferred that the lower range of adjusted effective dosages for the selected route of administration be used.

[2] = system: patients; settings: cited from earlier work
[3] = system: men; settings: oral, a few hundred men treated for depression, early 1980s; cited from earlier work
[4] = injection, alone or combined with phentolamine

stomach discomfort ([1]; 2.5 mg and 1.25 mg doses): No stomach discomfort was experienced
Molecule: CCCC[C@H](NC(C)=O)C(=O)N[C@H]1CC(=O)NCCCC[C@@H](C(=O)NCC(N)=O)NC(=O)[C@H](Cc2c[nH]c3ccccc23)NC(=O)[C@H](CCCNC(=N)N)NC(=O)[C@@H](Cc2ccccc2)NC(=O)[C@H](Cc2c[nH]cn2)NC1=O (Ac-[Nle]DH[dF]RWKG-NH2; lactam 2-7)
duration of erection (sustained intermittently) ([1]; 1.25 mg dose): up to 6 hours
induction of erection ([1]; 1.25 mg dose): induced an erection
onset of erection ([1]; 1.25 mg dose, compared with 2.5 mg): took longer to initially occur
time to erection following administration ([1]; 2.5 mg): ≤ 60 min

Molecule: COc1ccc(Cc2nccc3cc(OC)c(OC)cc23)cc1OC [papaverine]
share of patients in whom erection is induced [2, 4]: about 70%
side effects [2, 4]: pain, ecchymosis, and occasional episodes of priapism

Molecule: O=c1n(CCCN2CCN(c3cccc(Cl)c3)CC2)nc2ccccn12 [trazodone]
erections as unexpected effect [3]: prolonged and painful erections

Molecule: vasoactive intestinal peptide (HSDAVFTDNYTRLRKQMAVKKYLNSILN; ends and bridges not checked; UniProt P01282 125-152, looked up)
induction of full erection necessary for intercourse ([2]; intrapenile injections, trials): proven ineffective
